Results reported in patent US20240285643A1, “TREATING INFLUENZA USING SUBSTITUTED POLYCYCLIC PYRIDONE DERIVATIVES AND PRODRUGS THEREOF IN A SUBJECT HAVING INFLUENZA AND A SEVERE INFLUENZA CONDITION” (Shionogi & Co., Ltd., priority 2019, published 2024).

Tests used:
[1] = tested on: influenza type A virus A/Osaka/129/2009 and Streptococcus pneumoniae SR1326; format: in vivo, BALB/c mice; settings: for mice survived: BXA 10 mg/kg sc single dose, OSP 10 mg/kg po bid 5 days, through 15 days
[2] = SD, rat, in vivo
[3] = tested on: influenza type A virus A/Osaka/129/2009 and Streptococcus pneumoniae SR1326; format: in vivo, BALB/c mice; settings: for mice recovered from body weight loss and survived: BXA 10 mg/kg sc single dose, OSP 10 mg/kg po bid 5 days
[4] = clinical; settings: human, in vivo
Procedure: Patients were administered up to three doses of baloxavir marboxil separated by 3 days (i.e., Days 1, 4, and 7). […] Likewise, total drug exposure simulated on Day 7 area under the plasma concentration-time curve for a dosing interval (AUCtau) was not expected to exceed area under the concentration-time curve from Time 0 to infinity (AUCinf) of the TQT, regardless of dose.

[5] = set-up: species or system rats; settings: rat, po
Description: FIGS. 1 and 2 show a result of measuring the plasma concentration of Compound (III) and Compound (II-6), respectively, after oral administration of prodrug Compound (II-6) to rats under non-fasting conditions.

| Compound | BA (%) [2] | mice survived [1] | mice recovered from body weight loss and survived [3] | other results |
| --- | --- | --- | --- | --- |
| baloxavir marboxil [II-6] |  |  |  | body weight change after virus infection ([1]; 2-day delayed treatment, compared with vehicle, OSP or monotherapy): less reduction of body weight |
| O=C1c2c(O)c(=O)ccn2N([C@@H]2c3ccccc3SCc3c2ccc(F)c3F)[C@@H]2COCCN12 [III, baloxavir] | 4.2% | 75% | 40% | Cmax [4]: 126 ng/mL; half-life [4]: ~70 h |
| CC(=O)Oc1c2n(ccc1=O)N([C@@H]1c3ccccc3SCc3c1ccc(F)c3F)[C@@H]1COCCN1C2=O [II-4] | 20.0% |  |  |  |
| CCOC(=O)C1=C[C@@H](OC(CC)CC)[C@H](NC(C)=O)[C@@H](N)C1 [OSP, Oseltamivir phosphate, reference compound] |  | all mice died | all mice died | survival time compared with vehicle treatment ([1]; 2-day delayed treatment, log rank test): significantly prolonged; efficacy on survival ([3]; mouse, in vivo): not effective |
| COC(=O)OCOc1c2n(ccc1=O)N([C@@H]1c3ccccc3SCc3c1ccc(F)c3F)[C@@H]1COCCN1C2=O [II-6, baloxavir marboxil] | 14.9% |  |  | conversion of prodrug to Compound (III) in vivo [5]: metabolized promptly to Compound (III) |
